From patent US20230233576A1, “ECLITASERTIB FOR USE IN TREATING CONDITIONS INVOLVING SYSTEMIC HYPERINFLAMMATORY RESPONSE” (priority 2020, published 2023)

System: laboratory markers of severe COVID-19 (D-dimer, leukocytes, lymphocytes, neutrophil to lymphocyte ratio, ferritin, LDH)
Experiment: Phase 1b severe COVID-19 study: laboratory markers of severe COVID-19
Assay type: in vivo, human
Conditions: for D-Dimer relative change from baseline, RIPK1 Inhibitor vs placebo, point estimate / Ferritin relative change from baseline, RIPK1 Inhibitor vs placebo, point estimate / Lactate Dehydrogenase relative change from baseline, RIPK1 Inhibitor vs placebo, point estimate / Leukocytes relative change from baseline, RIPK1 Inhibitor vs placebo, point estimate / Lymphocytes relative change from baseline, RIPK1 Inhibitor vs placebo, point estimate / Neutrophils/Lymphocytes (RATIO) relative change from baseline, RIPK1 Inhibitor vs placebo, point estimate: MMRM; for D-Dimer relative change from baseline, RIPK1 Inhibitor vs placebo, point estimate / Ferritin relative change from baseline, RIPK1 Inhibitor vs placebo, point estimate / Lactate Dehydrogenase relative change from baseline, RIPK1 Inhibitor vs placebo, point estimate / Leukocytes relative change from baseline, RIPK1 Inhibitor vs placebo, point estimate / Lymphocytes relative change from baseline, RIPK1 Inhibitor vs placebo, point estimate / Neutrophils/Lymphocytes (RATIO) relative change from baseline, RIPK1 Inhibitor vs placebo, point estimate / D-Dimer: point estimate of the relative change from baseline (geometric mean) / D-Dimer: point estimate of the relative change from baseline displayed as percent change / Ferritin: point estimate of the relative change from baseline (geometric mean) / Ferritin: point estimate of the relative change from baseline displayed as percent change / Lactate Dehydrogenase: point estimate of the relative change from baseline (geometric mean) / Lactate Dehydrogenase: point estimate of the relative change from baseline displayed as percent change / Leukocytes: point estimate of the relative change from baseline (geometric mean) / Leukocytes: point estimate of the relative change from baseline displayed as percent change / Lymphocytes: point estimate of the relative change from baseline (geometric mean) / Lymphocytes: point estimate of the relative change from baseline displayed as percent change / Neutrophils/Lymphocytes (RATIO): point estimate of the relative change from baseline (geometric mean) / Neutrophils/Lymphocytes (RATIO): point estimate of the relative change from baseline displayed as percent change: LOCF, Efficacy population
Description: For clinical assessment, the variables associated with endpoints were: • main inflammatory marker CRP • Oxygenation saturation and oxygen delivery (e.g. SpO2, SpO2/FiO2), Laboratory markers of severe COVID-19 including D-dimer, lactate dehydrogenase (LDH), ferritin and hematology laboratory (white blood cell count, differential blood lymphocytes, neutrophil to lymphocyte ratio) • Clinical status of participant (7-point ordinal scale) • Thrombolytic and vasopressor treatments
Other secondary clinical assessment endpoints included: • Number of Days without need for oxygen support and alive (oxygen saturation≥92% breathing room air) up to Day 28 • Numbers of Ventilator-free days and alive up to Day 28 • Change from baseline in markers of inflammation (White blood cell count, differential blood lymphocytes, neutrophil to lymphocyte ratio, IL-6) and D-Dimer at Day 7 and EOT • Incidence of Deaths up to Day 28 • Percentage of participants receiving thrombolytic treatment up to Day 28 • Percentage of participants receiving vasopressor treatment up to Day 28 • Numbers of Respiratory Failure-Free Days (RFFD) and alive up to Day 28
Exploratory clinical assessments endpoints included: • Change from baseline in ferritin and LDH at Day 7 and EOT • Proportion of participants per category of the 7-point clinical scale at EOT • Time to improvement by 2 points in category of 7-point clinical scale • Quantitative SARS-COV-2 viral load in blood at baseline and on Day 3, 5, 7 and EOT
The relative changes from baseline in laboratory markers of severe COVID-19 were analyzed for the two treatment groups and for the treatment comparison of RIPK1 Inhibitor versus placebo, at Day 7 and EOT (Table 22, Table 23, Table 24). See also FIGS. 14, 15, 16, 17, 18, and 19.

`CN1C(=O)[C@@H](NC(=O)c2nnc(Cc3ccccc3)[nH]2)COc2cccnc21` [RIPK1 Inhibitor, (S)-5-benzyl-N-(5-methyl-4-oxo-2,3,4,5-tetrahydropyrido[3,2-b][1,4]oxazepin-3-yl)-4H-1,2,4-triazole-3-carboxamide] was tested, and the “D-Dimer relative change from baseline, RIPK1 Inhibitor vs placebo, point estimate” value (600 mg, Day 7) was 0.88, the “Ferritin relative change from baseline, RIPK1 Inhibitor vs placebo, point estimate” value (600 mg, Day 7) was 0.96 and the “Lactate Dehydrogenase relative change from baseline, RIPK1 Inhibitor vs placebo, point estimate” value (600 mg, Day 7) was 0.80. The “Leukocytes relative change from baseline, RIPK1 Inhibitor vs placebo, point estimate” value (600 mg, Day 7) was 0.87, the “Lymphocytes relative change from baseline, RIPK1 Inhibitor vs placebo, point estimate” value (600 mg, Day 7) was 1.02 and the “Neutrophils/Lymphocytes (RATIO) relative change from baseline, RIPK1 Inhibitor vs placebo, point estimate” value (600 mg, Day 7) was 0.65. The “difference with RIPK1 Inhibitor versus placebo for ferritin” value (600 mg, Day 7 and EOT) was “No differences”, the “D-Dimer relative change from baseline, RIPK1 Inhibitor vs placebo, point estimate” value (600 mg, EOT) was 1.07 and the “Ferritin relative change from baseline, RIPK1 Inhibitor vs placebo, point estimate” value (600 mg, EOT) was 0.98. The “Lactate Dehydrogenase relative change from baseline, RIPK1 Inhibitor vs placebo, point estimate” value (600 mg, EOT) was 0.85, the “Leukocytes relative change from baseline, RIPK1 Inhibitor vs placebo, point estimate” value (600 mg, EOT) was 1.03 and the “Lymphocytes relative change from baseline, RIPK1 Inhibitor vs placebo, point estimate” value (600 mg, EOT) was 1.03. For the same compound, the “Neutrophils/Lymphocytes (RATIO) relative change from baseline, RIPK1 Inhibitor vs placebo, point estimate” value (600 mg, EOT) was 0.67, the “D-Dimer: point estimate of the relative change from baseline (geometric mean)” value (Day 03) was 1.00 and the “D-Dimer: point estimate of the relative change from baseline displayed as percent change” value (Day 03) was −0.31%. The “Ferritin: point estimate of the relative change from baseline (geometric mean)” value (Day 03) was 3.43, the “Ferritin: point estimate of the relative change from baseline displayed as percent change” value (Day 03) was 242.68% and the “Lactate Dehydrogenase: point estimate of the relative change from baseline (geometric mean)” value (Day 03) was 2.42. For the same compound, the “Lactate Dehydrogenase: point estimate of the relative change from baseline displayed as percent change” value (Day 03) was 141.68%, the “Leukocytes: point estimate of the relative change from baseline (geometric mean)” value (Day 03) was 6.10 and the “Leukocytes: point estimate of the relative change from baseline displayed as percent change” value (Day 03) was 509.93%. The “Lymphocytes: point estimate of the relative change from baseline (geometric mean)” value (Day 03) was 1.35, the “Lymphocytes: point estimate of the relative change from baseline displayed as percent change” value (Day 03) was 34.70% and the “Neutrophils/Lymphocytes (RATIO): point estimate of the relative change from baseline (geometric mean)” value (Day 03) was 2.01. The “Neutrophils/Lymphocytes (RATIO): point estimate of the relative change from baseline displayed as percent change” value (Day 03) was 100.80%, the “D-Dimer: point estimate of the relative change from baseline (geometric mean)” value (Day 05) was 1.04 and the “D-Dimer: point estimate of the relative change from baseline displayed as percent change” value (Day 05) was 4.10%. The “Ferritin: point estimate of the relative change from baseline (geometric mean)” value (Day 05) was 2.91, the “Ferritin: point estimate of the relative change from baseline displayed as percent change” value (Day 05) was 191.34% and the “Lactate Dehydrogenase: point estimate of the relative change from baseline (geometric mean)” value (Day 05) was 2.23. For the same compound, the “Lactate Dehydrogenase: point estimate of the relative change from baseline displayed as percent change” value (Day 05) was 122.59%, the “Leukocytes: point estimate of the relative change from baseline (geometric mean)” value (Day 05) was 6.14 and the “Leukocytes: point estimate of the relative change from baseline displayed as percent change” value (Day 05) was 513.77%. The “Lymphocytes: point estimate of the relative change from baseline (geometric mean)” value (Day 05) was 1.43, the “Lymphocytes: point estimate of the relative change from baseline displayed as percent change” value (Day 05) was 42.51% and the “Neutrophils/Lymphocytes (RATIO): point estimate of the relative change from baseline (geometric mean)” value (Day 05) was 1.89. The “Neutrophils/Lymphocytes (RATIO): point estimate of the relative change from baseline displayed as percent change” value (Day 05) was 89.49%, the “D-Dimer: point estimate of the relative change from baseline (geometric mean)” value (Day 07) was 0.96 and the “D-Dimer: point estimate of the relative change from baseline displayed as percent change” value (Day 07) was −3.52%. The “Ferritin: point estimate of the relative change from baseline (geometric mean)” value (Day 07) was 2.80, the “Ferritin: point estimate of the relative change from baseline displayed as percent change” value (Day 07) was 179.61% and the “Lactate Dehydrogenase: point estimate of the relative change from baseline (geometric mean)” value (Day 07) was 2.10. The “Lactate Dehydrogenase: point estimate of the relative change from baseline displayed as percent change” value (Day 07) was 110.26%, the “Leukocytes: point estimate of the relative change from baseline (geometric mean)” value (Day 07) was 6.15 and the “Leukocytes: point estimate of the relative change from baseline displayed as percent change” value (Day 07) was 514.60%. The “Lymphocytes: point estimate of the relative change from baseline (geometric mean)” value (Day 07) was 1.52, the “Lymphocytes: point estimate of the relative change from baseline displayed as percent change” value (Day 07) was 51.69% and the “Neutrophils/Lymphocytes (RATIO): point estimate of the relative change from baseline (geometric mean)” value (Day 07) was 1.74. For the same compound, the “Neutrophils/Lymphocytes (RATIO): point estimate of the relative change from baseline displayed as percent change” value (Day 07) was 74.47%, the “D-Dimer: point estimate of the relative change from baseline (geometric mean)” value (Day 15) was 0.96 and the “D-Dimer: point estimate of the relative change from baseline displayed as percent change” value (Day 15) was −3.71%. For the same compound, the “Ferritin: point estimate of the relative change from baseline (geometric mean)” value (Day 15) was 2.66, the “Ferritin: point estimate of the relative change from baseline displayed as percent change” value (Day 15) was 166.34% and the “Lactate Dehydrogenase: point estimate of the relative change from baseline (geometric mean)” value (Day 15) was 2.05. The “Lactate Dehydrogenase: point estimate of the relative change from baseline displayed as percent change” value (Day 15) was 104.58%, the “Leukocytes: point estimate of the relative change from baseline (geometric mean)” value (Day 15) was 6.60 and the “Leukocytes: point estimate of the relative change from baseline displayed as percent change” value (Day 15) was 560.21%. The “Lymphocytes: point estimate of the relative change from baseline (geometric mean)” value (Day 15) was 1.63, the “Lymphocytes: point estimate of the relative change from baseline displayed as percent change” value (Day 15) was 63.48% and the “Neutrophils/Lymphocytes (RATIO): point estimate of the relative change from baseline (geometric mean)” value (Day 15) was 1.66. The “Neutrophils/Lymphocytes (RATIO): point estimate of the relative change from baseline displayed as percent change” value (Day 15) was 65.55%.
